For one assay, the system named is p-ERK1/2 in HCT116 cells. Put plainly: AlphaLISA p-ERK assay, cellular inhibition of ERK phosphorylation in HCT116 cells. It is filed as cell-based. The note with it: Homo sapiens, HCT-116, 2 hours treatment, PMA stimulation 30 mins. As for the experimental part:
Cell culture: HCTI 16, HT-29, and NCI-H292 cells were acquired from American Type Culture Collection (ATCC). HCT116 and HT-29 cells were maintained in ATCC-formulated McCoy's 5a Medium Modified supplemented with 10% fetal bovine serum, NCI-H292 cells were cultured in ATCC formulated RPMI-1640 supplemented with 10% fetal bovine serum. All cells were maintained at 37° C., 5% CO2.
Efficacy of exemplary compounds in cellular inhibition of ERK phosphorylation: Phosphorylation status of ERK1/2 (p-ERK) was used as a readout for inhibition of BRAF-MEK pathway. p-ERK was detected using an immunoassay for quantitative detection of phospho-ERK 1/2 (phosphorylated on Thr202/Tyr204 in ERK1, or Thr185/Tyr187 in ERK2), such as the AlphaLISA® SureFire® Ultra™ p-ERK1/2 (Thr202/Tyr204) kit (Perkin Elmer). HCT116 cells were plated at 10,000 cells per well in 384-well TC-treated plates (Coming). Cells were plated for 24 hours, the medium was then aspirated and cells were treated with vehicle (DMSO) or test compounds (0.1% DMSO in final volume) prepared in serum free, phenol red free medium for 2 hours. Following treatment, cells were stimulated with PMA (1.25 μM/well) for 30 mins after which the medium was aspirated, and the cells were lysed for 10 mins with 1× lysis buffer supplemented with Halt Protease and Phosphatase Inhibitor Cocktail (Thermo Fisher). The lysate was transferred to a 384 well Alpha-plate (PerkinElmer) and incubated for 1 hour with acceptor bead mix followed by 1 hour incubation with donor bead mix. After incubation, the plate was read on a Cytation5 microplate reader (Agilent). % inhibition as a function of compound concentration from 3 replicate wells was fit with a 4-parameter logistic curve using GraphPad Prism or CDD Vault to derive IC50 values.
In this table, for the BRAF ADP Glo kinase assay, “A” indicates IC50 of less than 5 nM; “B” indicates IC50 of between 5 nM to 50 nM; and “C” indicates IC50 of between 50 nM to 500 nM. “D” indicates IC50 of greater than 500 nM. For the BRAF-MEK TR-FRET assay, “A” indicates EC50 of less than 50 nM; “B” indicates EC50 of between 50 nM to 200 nM; and “C” indicates EC50 of between 200 nM to 1 μM. “D′” indicates EC50 of greater than 1 μM. For the AlphaLisa P-ERK assay, “A” indicates IC50 of less than 1 nM; “B” indicates IC50 of between 1 nM to 10 nM; and “C” indicates IC50 of between 10 nM to 100 nM. “D” indicates IC50 of greater than 100 nM. For the cell viability assay, “A” indicates IC50 of less than 1 nM; “B” indicates IC50 of between 1 nM to 10 nM; and “C” indicates IC50 of between 10 nM to 100 nM. “D” indicates IC50 of greater than 100 nM.

The next assay relates to NCI-H292 cells. Put plainly: Cell viability assay (CellTiter-Glo), NCI-H292. The class given is cell-based. The settings on record: Homo sapiens, 72 hrs, read-out: Cell Viability Assay: IC50 Determination NCI-H292. The essentials: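 Cells seeded at 2,000 per well in RPMI-1640 with 10% FBS, treated 24 h later with compound (0.1% DMSO) for 72 h. Viability read by CellTiter-Glo luminescence; IC50 from 4-parameter logistic fit of % inhibition over 3 replicate wells.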

The next assay concerns the target T1, MEK1 (Homo sapiens, UniProt Q02750).
T1 construct: purchased SignalChem M02-14H
Put plainly: MEK1 kinase cascade assay (ADP-Glo), inhibition of MEK1 kinase activity. It is filed as biochemical. The note with it: 25 nM BRAF, 6.25 nM MEK1, 0.5 μM ERK, 1 mM ATP; 20 min preincubation, 1 hr at 25° C.; read-out: BRAF ADP Glo kinase assay V3 (IC50). The essentials: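 Cascade format with ADP-Glo read-out: BRAF (25 nM) and compound, 1% DMSO, 20 mins at 25° C, then MEK1 6.25 nM, ERK1 0.5 μM, ATP 1 mM for 1 hr at 25° C in HEPES pH 7.5 buffer with MgCl2, CHAPS and DTT. Percent inhibition, scaled between DMSO and 1 μM Trametinib, was fit by 4-parameter logistic to give IC50 (2 replicate wells).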

Another assay relates to BRAF-MEK1. Nature of the assay: BRAF-MEK TR-FRET assay, stabilization of MEK1 and BRAF interaction. It is filed as binding. The note with it: 4 nM BRAF, 10 nM MEK, 100 μM ATP; 1 hr at 25° C.; read-out: BRAF-MEK TR-FRET Assay (EC50, fold stabilization). In a few lines:
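Read-out is fold stabilization (treated FRET ratio/DMSO, Em 665/620 nm), fit 4-parameter for EC50 from 2 replicates. Compounds sat with 4 nM GST-BRAF and 10 nM in-house His-MEK1 1 h at 25° C (Tris pH 7.5, MgCl2, 100 μM ATP), then detection antibodies 1 h.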
In general terms: In TR-FRET formats the signal depends on donor and acceptor labels being close together.

pEC50, pIC50: −log10 of the molar value.

Data on six compounds can be found in patent US20260297105A1, “RAF-MEK PROTEIN COMPLEX MODULATORS AND METHODS OF USE THEREOF” (GANDEEVA THERAPEUTICS, INC., priority 2023, published 2026).

T1 sequence (Q02750 whole entry): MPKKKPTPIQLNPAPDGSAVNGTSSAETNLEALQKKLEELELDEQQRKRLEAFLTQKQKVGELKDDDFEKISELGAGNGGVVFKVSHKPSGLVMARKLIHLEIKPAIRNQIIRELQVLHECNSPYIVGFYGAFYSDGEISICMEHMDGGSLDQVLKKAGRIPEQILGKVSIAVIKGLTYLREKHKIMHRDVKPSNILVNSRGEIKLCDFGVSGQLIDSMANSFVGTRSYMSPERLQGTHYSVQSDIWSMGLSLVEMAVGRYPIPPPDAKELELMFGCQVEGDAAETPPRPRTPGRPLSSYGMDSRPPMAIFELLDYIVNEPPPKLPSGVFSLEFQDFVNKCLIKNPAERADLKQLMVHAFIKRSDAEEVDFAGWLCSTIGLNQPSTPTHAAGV
T1 sequence (P15056 445-723 partner limits assumed): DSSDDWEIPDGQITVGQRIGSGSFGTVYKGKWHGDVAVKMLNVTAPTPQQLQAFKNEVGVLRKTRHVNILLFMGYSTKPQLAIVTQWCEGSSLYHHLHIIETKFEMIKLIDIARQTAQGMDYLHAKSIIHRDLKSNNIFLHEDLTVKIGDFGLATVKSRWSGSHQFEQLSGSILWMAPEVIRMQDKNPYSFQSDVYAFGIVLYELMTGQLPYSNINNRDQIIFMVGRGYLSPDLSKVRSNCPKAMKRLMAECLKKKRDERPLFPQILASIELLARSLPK

Turning to `CNS(=O)(=O)Nc1cccc(CN2Cc3ccc(OC(=O)N(C)C)c(F)c3OC2=O)c1F` [Compound 131, 8-fluoro-3-(2-fluoro-3-((N-methylsulfamoyl)amino)benzyl)-2-oxo-3,4-dihydro-2H-benzo[e][1,3]oxazin-7-yl dimethylcarbamate], the figures for the pIC50 with p-ERK1/2 in HCT116 cells, in the assay with NCI-H292 cells and at MEK1 were 8.00 to 9.00, 8.00 to 9.00 and more than 8.30, respectively. The pEC50 in the assay on BRAF-MEK1 is 6.70 to 7.30.
Take `CNS(=O)(=O)Nc1cccc(CN2C(=O)Oc3cc(Oc4cccnn4)ccc3[C@H]2C)c1F` (single isomer, unassigned) [Compound 71]: the values for the pIC50 with p-ERK1/2 in HCT116 cells, in the assay on NCI-H292 cells and at MEK1 were 7.00 to 8.00, 8.00 to 9.00 and 7.30 to 8.30, respectively. Further, the pEC50 in the assay on BRAF-MEK1 is 6.00 to 6.70.
In the same order, the values of `CNS(=O)(=O)Nc1cccc(CN2C(=O)Oc3c(ccc(Oc4cccnn4)c3F)C23COC3)c1F` [Compound 42] are 8.00 to 9.00, 8.00 to 9.00, more than 8.30 and 6.70 to 7.30.
For `CNS(=O)(=O)Nc1cccc(CN2C(=O)Oc3cc(Oc4cccnn4)c(F)cc3[C@@H]2C)c1F` (single isomer, unassigned) [Compound 66], the values for the pIC50 with p-ERK1/2 in HCT116 cells, in the assay on NCI-H292 cells and at MEK1 were 8.00 to 9.00, 8.00 to 9.00 and more than 8.30, respectively. Moreover, the pEC50 in the assay with BRAF-MEK1 was 6.00 to 6.70.
For `CNS(=O)(=O)Nc1cccc(CN2C(=O)Oc3cc(Oc4cccnn4)cc(F)c3[C@H]2C)c1F` (single isomer, unassigned) [Compound 57], the pIC50 – broadly, the negative decadic logarithm of the IC50, by convention in mol/L – in the assay with p-ERK1/2 in HCT116 cells was 8.00 to 9.00; in the assay with NCI-H292 cells, 8.00 to 9.00; on MEK1, 7.30 to 8.30. For the same compound, the pEC50 in the assay on BRAF-MEK1 was 6.70 to 7.30.
In the case of `CNS(=O)(=O)Nc1nccc(CN2C(=O)Oc3cc(Oc4ncco4)ccc3C23COC3)c1F` [Compound 68, 3-({3-fluoro-2-[(methylsulfamoyl)amino]pyridin-4-yl}methyl)-7-(1,3-oxazol-2-yloxy)-2,3-dihydrospiro[1,3-benzoxazine-4,3′-oxetan]-2-one], the pIC50 in the assay on p-ERK1/2 in HCT116 cells was 7.00 to 8.00; in the assay on NCI-H292 cells it was 8.00 to 9.00; at MEK1, 7.30 to 8.30. Also, the pEC50 with BRAF-MEK1 is 6.70 to 7.30.
